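The compound was tested at five concentrations on cells cultured in 96-well plates, with a 48-hour exposure period. TGI: total growth inhibition.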
Key:
Assay in all cases: NCI tumour cell line growth inhibition, 48 h
DMS 114 small cell lung = test system: DMS 114 small cell lung
SF-268 CNS = test system: SF-268 CNS
OVCAR-3 ovarian = test system: OVCAR-3 ovarian
SK-MEL-5 melanoma = test system: SK-MEL-5 melanoma
SW-620 colon = test system: SW-620 colon
RPMI-8226 leukemia = test system: RPMI-8226 leukemia
LXFL 529 NSCLC = test system: LXFL 529 NSCLC
HT29 colon = test system: HT29 colon
M19-MEL melanoma = test system: M19-MEL melanoma
MALME-3M melanoma = test system: MALME-3M melanoma
SNB-75 CNS = test system: SNB-75 CNS
NCI-H460 lung = test system: NCI-H460 lung
CAKI-1 renal = test system: CAKI-1 renal
U251 CNS = test system: U251 CNS
KM12 colon = test system: KM12 colon
OVCAR-8 ovarian = test system: OVCAR-8 ovarian
SK-OV-3 ovarian = test system: SK-OV-3 ovarian
DMS 273 small cell lung = test system: DMS 273 small cell lung
K-562 leukemia = test system: K-562 leukemia
HL-60(TB) leukemia = test system: HL-60(TB) leukemia
XF 498 CNS = test system: XF 498 CNS
IGROV1 ovarian = test system: IGROV1 ovarian
RXF-631 renal = test system: RXF-631 renal
UACC-257 melanoma = test system: UACC-257 melanoma
UACC-62 melanoma = test system: UACC-62 melanoma
TK-10 renal = test system: TK-10 renal
HOP-62 NSCLC = test system: HOP-62 NSCLC
SK-MEL-2 melanoma = test system: SK-MEL-2 melanoma
SNB-78 CNS = test system: SNB-78 CNS
OVCAR-5 ovarian = test system: OVCAR-5 ovarian
A549 NSCLC = test system: A549 NSCLC
ACHN renal = test system: ACHN renal
HOP-92 NSCLC = test system: HOP-92 NSCLC
MOLT-4 leukemia = test system: MOLT-4 leukemia
M14 melanoma = test system: M14 melanoma
A498 renal = test system: A498 renal
CCRF-CEM leukemia = test system: CCRF-CEM leukemia
DLD-1 colon = test system: DLD-1 colon
SF-539 CNS = test system: SF-539 CNS
NCI-H226 lung = test system: NCI-H226 lung
SK-MEL-28 melanoma = test system: SK-MEL-28 melanoma
COLO 205 colon = test system: COLO 205 colon
SF-295 CNS = test system: SF-295 CNS
EKVX NSCLC = test system: EKVX NSCLC
NCI-H23 lung = test system: NCI-H23 lung
HCT-15 colon = test system: HCT-15 colon
786-0 renal = test system: 786-0 renal
LOX IMVI melanoma = test system: LOX IMVI melanoma
HCC-2998 colon = test system: HCC-2998 colon
KM20L2 colon = test system: KM20L2 colon
UO-31 renal = test system: UO-31 renal
SN12C renal = test system: SN12C renal
RXF 393 renal = test system: RXF 393 renal
OVCAR-4 ovarian = test system: OVCAR-4 ovarian
HOP-18 NSCLC = test system: HOP-18 NSCLC
HCT-116 colon = test system: HCT-116 colon
NCI-H522 lung = test system: NCI-H522 lung
SNB-19 CNS = test system: SNB-19 CNS

O=C1[C@@H]2C(c3ccccc3Br)=NO[C@@H]2C(=O)N1c1ccc(Cc2ccc(N3C(=O)[C@H]4C(c5ccccc5Br)=NO[C@H]4C3=O)cc2)cc1
TGI (DMS 114 small cell lung): > 100 µM
TGI (SF-268 CNS): > 100 µM
TGI (OVCAR-3 ovarian): > 100 µM
TGI (SK-MEL-5 melanoma): > 100 µM
TGI (SW-620 colon): > 100 µM
TGI (RPMI-8226 leukemia): > 100 µM
TGI (LXFL 529 NSCLC): > 100 µM
TGI (HT29 colon): > 100 µM
TGI (M19-MEL melanoma): > 100 µM
TGI (MALME-3M melanoma): > 100 µM
TGI (SNB-75 CNS): > 100 µM
TGI (NCI-H460 lung): > 100 µM
TGI (CAKI-1 renal): > 100 µM
TGI (U251 CNS): > 100 µM
TGI (KM12 colon): > 100 µM
TGI (OVCAR-8 ovarian): > 100 µM
TGI (SK-OV-3 ovarian): > 100 µM
TGI (DMS 273 small cell lung): > 100 µM
TGI (K-562 leukemia): > 100 µM
TGI (HL-60(TB) leukemia): > 100 µM
TGI (XF 498 CNS): > 100 µM
TGI (IGROV1 ovarian): > 100 µM
TGI (RXF-631 renal): > 100 µM
TGI (UACC-257 melanoma): > 100 µM
TGI (UACC-62 melanoma): > 100 µM
TGI (TK-10 renal): > 100 µM
TGI (HOP-62 NSCLC): > 100 µM
TGI (SK-MEL-2 melanoma): > 100 µM
TGI (SNB-78 CNS): > 100 µM
TGI (OVCAR-5 ovarian): > 100 µM
TGI (A549 NSCLC): > 100 µM
TGI (ACHN renal): > 100 µM
TGI (HOP-92 NSCLC): > 100 µM
TGI (MOLT-4 leukemia): > 100 µM
TGI (M14 melanoma): > 100 µM
TGI (A498 renal): > 100 µM
TGI (CCRF-CEM leukemia): > 100 µM
TGI (DLD-1 colon): > 100 µM
TGI (SF-539 CNS): > 100 µM
TGI (NCI-H226 lung): > 100 µM
TGI (SK-MEL-28 melanoma): > 100 µM
TGI (COLO 205 colon): > 100 µM
TGI (SF-295 CNS): > 100 µM
TGI (EKVX NSCLC): > 100 µM
TGI (NCI-H23 lung): > 100 µM
TGI (HCT-15 colon): > 100 µM
TGI (786-0 renal): > 100 µM
TGI (LOX IMVI melanoma): > 100 µM
TGI (HCC-2998 colon): > 100 µM
TGI (KM20L2 colon): > 100 µM
TGI (UO-31 renal): > 100 µM
TGI (SN12C renal): > 100 µM
TGI (RXF 393 renal): > 100 µM
TGI (OVCAR-4 ovarian): > 100 µM
TGI (HOP-18 NSCLC): > 100 µM

COc1cc(/C=C/c2ccncc2)cc(OC)c1OC
TGI (DMS 114 small cell lung): > 100 µM
TGI (SF-268 CNS): > 100 µM
TGI (OVCAR-3 ovarian): > 100 µM
TGI (SK-MEL-5 melanoma): > 100 µM
TGI (SW-620 colon): > 100 µM
TGI (RPMI-8226 leukemia): > 100 µM
TGI (LXFL 529 NSCLC): > 100 µM
TGI (HT29 colon): > 100 µM
TGI (MALME-3M melanoma): > 100 µM
TGI (SNB-75 CNS): > 100 µM
TGI (NCI-H460 lung): > 100 µM
TGI (CAKI-1 renal): > 100 µM
TGI (U251 CNS): > 100 µM
TGI (KM12 colon): > 100 µM
TGI (OVCAR-8 ovarian): > 100 µM
TGI (DMS 273 small cell lung): > 100 µM
TGI (K-562 leukemia): > 100 µM
TGI (HCT-116 colon): > 100 µM
TGI (HL-60(TB) leukemia): 97.8 µM
TGI (XF 498 CNS): 91.3 µM
TGI (IGROV1 ovarian): > 100 µM
TGI (RXF-631 renal): > 100 µM
TGI (UACC-257 melanoma): > 100 µM
TGI (UACC-62 melanoma): > 100 µM
TGI (TK-10 renal): > 100 µM
TGI (HOP-62 NSCLC): > 100 µM
TGI (NCI-H522 lung): > 100 µM
TGI (SNB-19 CNS): > 100 µM
TGI (SNB-78 CNS): > 100 µM
TGI (OVCAR-5 ovarian): 97.9 µM
TGI (A549 NSCLC): > 100 µM
TGI (ACHN renal): > 100 µM
TGI (HOP-92 NSCLC): > 100 µM
TGI (MOLT-4 leukemia): > 100 µM
TGI (M14 melanoma): > 100 µM
TGI (A498 renal): > 100 µM
TGI (CCRF-CEM leukemia): > 100 µM
TGI (DLD-1 colon): > 100 µM
TGI (SF-539 CNS): > 100 µM
TGI (NCI-H226 lung): > 100 µM
TGI (SK-MEL-28 melanoma): > 100 µM
TGI (COLO 205 colon): > 100 µM
TGI (SF-295 CNS): > 100 µM
TGI (EKVX NSCLC): > 100 µM
TGI (NCI-H23 lung): > 100 µM
TGI (HCT-15 colon): > 100 µM
TGI (786-0 renal): > 100 µM
TGI (LOX IMVI melanoma): > 100 µM
TGI (KM20L2 colon): > 100 µM
TGI (UO-31 renal): 83.1 µM
TGI (SN12C renal): > 100 µM
TGI (RXF 393 renal): 99.2 µM
TGI (OVCAR-4 ovarian): > 100 µM
TGI (HOP-18 NSCLC): > 100 µM

From PubChem BioAssay (NCI)
